Key:
Type in all cases: in vivo
[1] = system: Daphnia; assay: Activity against Daphnia, 48 hr exposure to treated water
Source text: 48 hr exposure to treated water

[2] = system: Pharaoh Ant (Monomorium pharaonis); assay: Laboratory ant bait study, 3-4 day exposure to bait, brood reduction; conditions: concentration tested 0.1%
Protocol: (§1) Laboratory ant bait studies were carried out with Red Imported Fire Ant (RIFA) (Solenopsis invicta) and Pharaoh Ant (Monomorium pharaonis). Chitin synthesis inhibitors, such as the compounds of the invention, control ants by killing the molting larvae and/or pupae and potentially preventing the hatching of eggs. Because adult workers are not affected, control is measured by effects on the brood. The studies involved 3-4 day exposure to bait. These limited exposure studies more accurately represent real world bait availability than continuous exposure.

[3] = system: Red Imported Fire Ant (RIFA) (Solenopsis invicta); assay: as above
Protocol: as §1

[4] = system: Subterranean Termite (Reticulitermes flavipes); assay: Continuous exposure (56 days) to treated paper
Source text: (§2) Subterranean Termite (Reticulitermes flavipes)
Continuous exposure (56 days) to treated paper Rates: 0.78, 3.12, 12.5, 50, 200 ppm

[5] = system: Cat Flea (Ctenocephalides fells); assay: Continuous exposure of larvae to treated media, impact on subsequent adult emergence
Source text: Cat Flea (Ctenocephalides fells)
Continuous exposure of larvae to treated media, impact on subsequent adult emergence Rates: 0.1, 1.0, 10, 100, 1000 ppm

[6] = system: Subterranean Termite (Reticulitermes flavipes); assay: Limited exposure (7 days), mortality determined at 14, 28, 42 and 56 days
Source text: as §2
Limited exposure (7 days) with mortality determined at 14, 28, 42, and 56 […]

[7] = system: German cockroach 2nd instars (Blattella germanica); assay: Limited ingestion exposure (48 hr) to treated cornmeal
Source text: German cockroach 2nd instars (Blattella germanica)
Limited ingestion exposure (48 hr) to treated cornmeal Rates: 1, 10, 100, 1000, 10000 ppm

[8] = system: German cockroach 2nd instars (Blattella germanica); assay: Continuous, low-dose ingestion exposure (treated cornmeal)

O=C(NC(=O)c1c(F)cccc1F)Nc1cc(Cl)c(OC(F)(F)C(F)C(F)(F)F)c(Cl)c1F (stereo not drawn) [Compound 1]
LC50 (ppb) in water [1]: 5.0 ppb | Time to Achieve 50% Brood Reduction ([2]; 3-4 day exposure to bait): 4 wks | Percent brood reduction achieved at end of study ([2]; at 13 wks): 70% | Time to Achieve 50% Brood Reduction ([3]; concentration tested 0.1%): 2 wks | Time to Achieve 90% Brood Reduction ([3]; concentration tested 0.1%): 3 wks | LT50 (days) for 200 ppm trt [4]: 27.6 days | LC50 (ppm) 35 days [4]: 31.2 ppm | LC50 (ppm) 56 days [4]: < 0.78 ppm | LC50 (ppm) [5]: 2.8 ppm | LC90 (ppm) [5]: 22 ppm | LT50 (days) for 10000 ppm treatment [6]: 23.7 days | LC50 (ppm) 21 days [7]: < 22.2 ppm | LC50 (ppm) 42 days [7]: < 9.1 ppm | LC50 (ppm) 21 days [8]: < 2.2 ppm | LC50 (ppm) 42 days [8]: <0.78 ppm

CCN(C(=O)NC(=O)c1c(F)cccc1F)c1cc(Cl)c(OC(F)(F)C(F)C(F)(F)F)c(Cl)c1F (stereo not drawn) [Compound 2, N-[3,5-Dichloro-2-fluoro-4-(1,1,2,3,3,3-hexafluoropropoxy)phenyl]-N'-(2,6-difluorobenzoyl)-N-ethylurea]
LC50 (ppm) 35 days [4]: < 0.78 ppm | LC50 (ppm) 56 days [4]: < 0.78 ppm | LC50 (ppm) [5]: 12.7 ppm | LC90 (ppm) [5]: 18.6 ppm | LC50 (ppm) 21 days [7]: 21.1 ppm | LC50 (ppm) 42 days [7]: 12.8 ppm | LC50 (ppm) 21 days [8]: 0.35 ppm | LC50 (ppm) 42 days [8]: 0.26 ppm

CCN(C(=O)Nc1cc(Cl)c(OC(F)(F)C(F)C(F)(F)F)c(Cl)c1F)C(=O)c1c(F)cccc1F (stereo not drawn) [Compound 3, N-[3,5-Dichloro-2-fluoro-4-(1,1,2,3,3,3-hexafluoropropoxy)phenyl]-N'-(2,6-difluorobenzoyl)-N'-ethyl urea]
LC50 (ppb) in water [1]: > 100 ppb | LC50 (ppm) 21 days [8]: 8.0 ppm | LC50 (ppm) 42 days [8]: 1.5 ppm

O=C(NC(=O)c1c(F)cccc1F)Nc1cc(Cl)c(OC(F)(F)C(F)F)c(Cl)c1 [hexaflumuron, reference compound]
LC50 (ppb) in water [1]: 68.1 ppb | Time to Achieve 50% Brood Reduction ([3]; concentration tested 0.25%): 4 wks | Time to Achieve 90% Brood Reduction ([3]; concentration tested 0.25%): 10 wks | LT50 (days) for 200 ppm trt [4]: 33.8 days | LC50 (ppm) 35 days [4]: > 200 ppm | LC50 (ppm) 56 days [4]: 1.3 ppm | LC50 (ppm) [5]: 65.7 ppm | LC90 (ppm) [5]: 333.5 ppm | LT50 (days) for 10000 ppm treatment [6]: 32.9 days | LC50 (ppm) 21 days [7]: > 10,000 ppm | LC50 (ppm) 42 days [7]: > 10,000 ppm | LC50 (ppm) 21 days [8]: > 200 ppm | LC50 (ppm) 42 days [8]: > 200 ppm

Reference: patent EP0936867B1, “BENZOYLPHENYLUREA INSECTICIDES AND METHODS OF USING CERTAIN BENZOYLPHENYLUREAS TO CONTROL COCKROACHES, ANTS, FLEAS, AND TERMITES” (Dow AgroSciences LLC, priority 1996, dated 1998)
